Assay results reported in patent US20100247593A1, “NOVEL COMPOUNDS AND PHARMACEUTICAL PREPARATIONS” (priority 2007, published 2010).

Experiments:
[1] = Stability in CDCl3 solution according to NMR spectra; format: physicochemical; conditions: CDCl3, 25° C.
Experimental: NMR spectra were recorded with a Varian UNITY INOVA 600 MHz spectrometer equipped with a cryoprobe in CDCl3 solution at 25° C. Chemical shifts are reported in ppm relative to residual solvent signal (δ(^1H) 7.25 ppm, δ(^13C) […]). Two-dimensional spectra recorded included DQF-COSY, NOESY, TOCSY, sensitivity-enhanced ^13C-HSQC and ^13C-^1H HMBC. Pulsed-field gradients were used for all ^13C correlation spectra. The NOESY mixing time was 800 ms, the TOCSY one 70 ms. ^13C-HMBC spectra were recorded with coupling evolution delay for the generation of multiple-bond correlations set to 62.5 ms. All 2D spectra were run with 4096*1024 points data matrix, giving τ2max=250 ms for ^1H nucleus in acquisition dimension and τ1max=100 ms for ^1H or τ1max=50 ms for ^13C for indirect dimension. Prior to Fourier transform the data matrix was zero-filled twice and multiplication by shifted sine-bell window function applied. For ^1H-^13C HMBC the magnitude spectra were calculated. Graphs from the spectra recorded are shown in drawing section FIGS. 15-27.

[2] = tested on: male mice; assay: Mice sexual behaviour test (number of mounts); format: in vivo

activity (Umnt) = 1/EC50 ([2]; subcutaneous x3 days, 7th day as basis)	Compound	stability in CDCl3 solution according to the NMR spectra [1]	sexual activity (number of mounts over a 3 hour period) ([2]; subcutaneous in sun flower-oil x3 days, highest dose (4 mg/kg), all days tested (D-4, D-7, D-14))	sexual activity (number of mounts over a 3 hour period) ([2]; subcutaneous x3 days, two lower doses (0.4 and 0.04 mg/kg))	increase of number of mounts counted during the 3 hour period ([2]; subcutaneous 0.4 mg/kg x3 days, D4)	sexual activity (number of mounts over a 3 hour period) ([2]; subcutaneous in sun-flower oil x3 days, lowest dose (0.004 mg/kg))	sexual activity (number of mounts over a 3 hour period) ([2]; subcutaneous in sun-flower oil x3 days, two highest doses (0.4 and 0.04 mg/kg), D-4, D-7, D-14)	time course of the effect on number of mounts ([2]; subcutaneous x3 days, tested D-4, D-7, D-14)
–	COC(=O)CC1C2(C)CC34OC5(C)OC67C(C(C(=O)C(C)C)C(=O)OC6C3(O)C2OC(C)=O)C(C)(C(OC(C)=O)c2ccoc2)CCC7(O5)C14C (stereo not drawn) [R310]	consisted of two isomers which slowly interchanged	Significant increases	significantly increased only on D-4	–	–	–	–
about 15 U/mg	COC(=O)CC1C2(C)CC34OC5(C)OC67C(CC(=O)OC6C3(OC(=O)C(C)C)C2OC(=O)C(C)C)C(C)(C(=O)c2ccoc2)CCC7(O5)C14C (stereo not drawn) [R306]	stable during several weeks	–	–	about 3.5 fold	tendency of increase	significant increases	peaked at D7, while clear effects were seen also at D14
